{"source": "paper PMC10418426", "about": "“A Comprehensive Technology Platform for the Rapid Discovery of Peptide Inhibitors against SARS-CoV-2 Pseudovirus Infection” (International Journal of Molecular Sciences, 2023)", "target": "T1, Wuhan variant RBD-Fc / ACE2 interaction (Homo sapiens, UniProt Q9BYF1)", "T1 construct": "purchased RayBiotech", "assay": "biochemical", "conditions": "read-out: percentage of inhibition of RBD binding to ACE2", "note": "Starred links: 1 amine or outer side, 2 acyl side, 3 side chain; linkers in the order of their positions; H or OH if unused. Positions of bridges follow the written chain, without caps; N, C: chain ends. Residues, ends and D or L forms follow the SMILES beside them. mXylylene = c1cc(C[*:1])cc(C[*:2])c1", "data": [{"smiles": "C[C@@H](O)[C@@H]1NC(=O)[C@@H]2CCCN2C(=O)[C@H](CCC(N)=O)NC(=O)[C@@H](N)CSCc2cccc(c2)CSC[C@@H](C(N)=O)NC(=O)[C@H](CCC(N)=O)NC(=O)[C@H](Cc2c[nH]c3ccccc23)NC(=O)CNC(=O)[C@H](CCCCN)NC(=O)CNC(=O)[C@H](CC(N)=O)NC1=O", "note": "[c9_05] (H-CQPTNGKGWQC-NH2; linker 1-11 via mXylylene)", "values": [{"measurement": "inhibition at 100 µM", "value": 78, "unit": "%"}]}]}
